Results: PubChem BioAssay (NCI)
“And” between values parts separate entries of the source, which are not always exact repeats. Identical values can stand only once.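 How tested: cells in 96-well plates exposed to compound for 48 hours at five concentrations. GI50 marks 50% less growth. TGI: concentration producing complete growth inhibition.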

Key:
Experiment in all cases: NCI anticancer screen, dose series, 48 h
RXF 393 renal = tested on: RXF 393 renal
RPMI-8226 leukemia = tested on: RPMI-8226 leukemia
OVCAR-5 ovarian = tested on: OVCAR-5 ovarian
K-562 leukemia = tested on: K-562 leukemia
UACC-257 melanoma = tested on: UACC-257 melanoma
SR leukemia = tested on: SR leukemia
HCT-15 colon = tested on: HCT-15 colon
HOP-62 NSCLC = tested on: HOP-62 NSCLC
HL-60(TB) leukemia = tested on: HL-60(TB) leukemia
UO-31 renal = tested on: UO-31 renal
IGROV1 ovarian = tested on: IGROV1 ovarian
SF-539 CNS = tested on: SF-539 CNS
U251 CNS = tested on: U251 CNS
NCI-H23 lung = tested on: NCI-H23 lung
T-47D breast = tested on: T-47D breast
MOLT-4 leukemia = tested on: MOLT-4 leukemia
OVCAR-8 ovarian = tested on: OVCAR-8 ovarian
COLO 205 colon = tested on: COLO 205 colon
A498 renal = tested on: A498 renal
PC-3 prostate = tested on: PC-3 prostate
SK-MEL-28 melanoma = tested on: SK-MEL-28 melanoma
786-0 renal = tested on: 786-0 renal
KM12 colon = tested on: KM12 colon
NCI-H226 lung = tested on: NCI-H226 lung
CAKI-1 renal = tested on: CAKI-1 renal
SNB-75 CNS = tested on: SNB-75 CNS
HOP-92 NSCLC = tested on: HOP-92 NSCLC
SK-MEL-2 melanoma = tested on: SK-MEL-2 melanoma
HS 578T breast = tested on: HS 578T breast
SF-268 CNS = tested on: SF-268 CNS
HCT-116 colon = tested on: HCT-116 colon
NCI-H460 lung = tested on: NCI-H460 lung
SF-295 CNS = tested on: SF-295 CNS
MDA-MB-231 breast = tested on: MDA-MB-231 breast
MCF7 breast = tested on: MCF7 breast
SK-OV-3 ovarian = tested on: SK-OV-3 ovarian
SNB-19 CNS = tested on: SNB-19 CNS
HCC-2998 colon = tested on: HCC-2998 colon
CCRF-CEM leukemia = tested on: CCRF-CEM leukemia
NCI/ADR-RES ovarian = tested on: NCI/ADR-RES ovarian
SK-MEL-5 melanoma = tested on: SK-MEL-5 melanoma
NCI-H522 lung = tested on: NCI-H522 lung
M14 melanoma = tested on: M14 melanoma
DU-145 prostate = tested on: DU-145 prostate
UACC-62 melanoma = tested on: UACC-62 melanoma
A549 NSCLC = tested on: A549 NSCLC
EKVX NSCLC = tested on: EKVX NSCLC
LOX IMVI melanoma = tested on: LOX IMVI melanoma
MDA-MB-435 = tested on: MDA-MB-435
TK-10 renal = tested on: TK-10 renal
OVCAR-4 ovarian = tested on: OVCAR-4 ovarian
SW-620 colon = tested on: SW-620 colon
MALME-3M melanoma = tested on: MALME-3M melanoma
HT29 colon = tested on: HT29 colon
OVCAR-3 ovarian = tested on: OVCAR-3 ovarian
SN12C renal = tested on: SN12C renal
BT-549 breast = tested on: BT-549 breast
ACHN renal = tested on: ACHN renal

SMILES: NC1(c2ccc(-c3nc4ccn5c(=O)[nH]nc5c4cc3-c3ccccc3)cc2)CCC1
- GI50 (RXF 393 renal): 0.0971 µM and 0.417 µM and 0.129 µM
- TGI (RXF 393 renal): 1.37 µM and 5.66 µM and 1.11 µM
- GI50 (RPMI-8226 leukemia): 7 µM and > 8.21 µM and 6.27 µM
- TGI (RPMI-8226 leukemia): 23.2 µM and > 10 µM and 28.4 µM
- GI50 (OVCAR-5 ovarian): 11.6 µM and > 10 µM and 12.6 µM
- TGI (OVCAR-5 ovarian): 24.7 µM and > 10 µM and 25.7 µM
- GI50 (K-562 leukemia): 5.43 µM and > 5.59 µM and 9.99 µM
- TGI (K-562 leukemia): 18.2 µM and > 10 µM and 29.1 µM
- GI50 (UACC-257 melanoma): 1.54 µM and > 10 µM and 12.7 µM
- TGI (UACC-257 melanoma): 5.42 µM and > 10 µM and 26.8 µM
- GI50 (SR leukemia): 7.28 µM and > 4.45 µM and 8.51 µM
- TGI (SR leukemia): 19.6 µM and 9.81 µM and 33.2 µM
- GI50 (HCT-15 colon): 2.92 µM and > 6.16 µM and 10.4 µM
- TGI (HCT-15 colon): 17.5 µM and > 10 µM and 23.9 µM
- GI50 (HOP-62 NSCLC): 3.84 µM and > 10 µM and 10.7 µM
- TGI (HOP-62 NSCLC): 15.9 µM and > 10 µM and 26.2 µM
- GI50 (HL-60(TB) leukemia): 9.79 µM and > 7.36 µM and 12.3 µM
- TGI (HL-60(TB) leukemia): 27.2 µM and > 10 µM and 28.8 µM
- GI50 (UO-31 renal): 0.765 µM and 0.344 µM and 1.08 µM
- TGI (UO-31 renal): 18.3 µM and > 10 µM and 3.06 µM
- GI50 (IGROV1 ovarian): 0.0878 µM and 0.198 µM and 0.407 µM
- TGI (IGROV1 ovarian): 13.6 µM and > 10 µM and 9.33 µM
- GI50 (SF-539 CNS): 0.197 µM and 1.71 µM and 1.63 µM
- TGI (SF-539 CNS): 5.77 µM and > 10 µM and 14 µM
- GI50 (U251 CNS): 2.34 µM and 2.68 µM and 3.65 µM
- TGI (U251 CNS): 14.7 µM and > 10 µM and 20 µM
- GI50 (NCI-H23 lung): 13.1 µM and > 10 µM and 13.2 µM
- TGI (NCI-H23 lung): 28.3 µM and > 10 µM and 27.2 µM
- GI50 (T-47D breast): 0.0198 µM and 0.0234 µM and 0.0639 µM
- GI50 (MOLT-4 leukemia): 0.353 µM and 0.531 µM and 0.313 µM
- TGI (MOLT-4 leukemia): 14.1 µM and > 10 µM and 10.9 µM
- GI50 (OVCAR-8 ovarian): 12.6 µM and > 10 µM and 14.9 µM
- TGI (OVCAR-8 ovarian): 28.2 µM and > 10 µM and 30.8 µM
- GI50 (COLO 205 colon): 0.461 µM and 0.651 µM and 1.81 µM
- TGI (COLO 205 colon): 12.4 µM and > 10 µM and 18.4 µM
- GI50 (A498 renal): 0.0411 µM and 0.0426 µM and 0.112 µM
- TGI (A498 renal): 0.432 µM and 0.319 µM and 0.865 µM
- GI50 (PC-3 prostate): 0.0523 µM and 0.135 µM and 0.141 µM
- TGI (PC-3 prostate): 17 µM and > 10 µM and 17.3 µM
- GI50 (SK-MEL-28 melanoma): 1.27 µM and > 10 µM and 7.49 µM
- TGI (SK-MEL-28 melanoma): 5.37 µM and > 10 µM and 21.6 µM
- GI50 (786-0 renal): 0.816 µM and 0.697 µM and 1.15 µM
- TGI (786-0 renal): 11.9 µM and > 9.66 µM and 14.7 µM
- GI50 (KM12 colon): 6.86 µM and > 8.08 µM and 12.2 µM
- TGI (KM12 colon): 20.8 µM and > 10 µM and 25.8 µM
- GI50 (NCI-H226 lung): 12.2 µM and > 10 µM and 11.6 µM
- TGI (NCI-H226 lung): 25.9 µM and > 10 µM and 26.4 µM
- GI50 (CAKI-1 renal): 5.01 µM and > 2.69 µM and 4.86 µM
- TGI (CAKI-1 renal): 20 µM and > 10 µM and 20.7 µM
- GI50 (SNB-75 CNS): 0.051 µM and 0.105 µM and 0.12 µM
- TGI (SNB-75 CNS): 3.35 µM and 2.62 µM and 4.53 µM
- GI50 (HOP-92 NSCLC): 0.035 µM and 0.113 µM and 0.163 µM
- TGI (HOP-92 NSCLC): 3.5 µM and > 2.63 µM and 5.61 µM
- GI50 (SK-MEL-2 melanoma): 14.9 µM and > 10 µM and 15.7 µM
- TGI (SK-MEL-2 melanoma): 30.2 µM and > 10 µM and 31.4 µM
- GI50 (HS 578T breast): 0.171 µM and 0.184 µM and 0.28 µM
- TGI (HS 578T breast): 7.4 µM and > 2.73 µM and 4.3 µM
- GI50 (SF-268 CNS): 12.2 µM and > 10 µM and 12.3 µM
- TGI (SF-268 CNS): 26.4 µM and > 10 µM and 27 µM
- GI50 (HCT-116 colon): 5.49 µM and > 6.86 µM and 11.3 µM
- TGI (HCT-116 colon): 19.3 µM and > 10 µM and 27.8 µM
- GI50 (NCI-H460 lung): 0.231 µM and 0.679 µM and 1.19 µM
- TGI (NCI-H460 lung): 17.7 µM and > 10 µM and 18.5 µM
- GI50 (SF-295 CNS): 0.267 µM and 0.698 µM and 0.611 µM
- TGI (SF-295 CNS): 5.22 µM and > 10 µM and 13.9 µM
- GI50 (MDA-MB-231 breast): 10.7 µM and > 10 µM and 13.5 µM
- TGI (MDA-MB-231 breast): 23.8 µM and > 10 µM and 26.7 µM
- TGI (MCF7 breast): 6.37 µM and > 10 µM and 17.5 µM
- GI50 (SK-OV-3 ovarian): 0.212 µM and 0.191 µM and 0.449 µM
- TGI (SK-OV-3 ovarian): 15.1 µM and > 5.49 µM and 14.9 µM
- GI50 (SNB-19 CNS): 2.64 µM and 3.84 µM and 5.83 µM
- TGI (SNB-19 CNS): 15.6 µM and > 10 µM and 20.2 µM
- GI50 (HCC-2998 colon): 3.35 µM and > 6.01 µM and 3.61 µM
- TGI (HCC-2998 colon): 18.6 µM and > 10 µM and 19.7 µM
- GI50 (CCRF-CEM leukemia): 0.362 µM and 0.488 µM and 0.402 µM
- TGI (CCRF-CEM leukemia): 15.6 µM and > 10 µM and 13.7 µM
- GI50 (NCI/ADR-RES ovarian): 11.9 µM and > 10 µM and 12.8 µM
- TGI (NCI/ADR-RES ovarian): 26.2 µM and > 10 µM and 26.9 µM
- GI50 (SK-MEL-5 melanoma): 2.09 µM and > 10 µM and 11.1 µM
- TGI (SK-MEL-5 melanoma): 5.79 µM and > 10 µM and 23.2 µM
- GI50 (NCI-H522 lung): 7.95 µM and > 10 µM and 11.6 µM
- TGI (NCI-H522 lung): 23.2 µM and > 10 µM and 26 µM
- GI50 (M14 melanoma): 4.69 µM and > 10 µM and 13.1 µM
- TGI (M14 melanoma): 9.71 µM and > 10 µM and 28.7 µM
- GI50 (DU-145 prostate): 13.6 µM and > 10 µM and 13.3 µM
- TGI (DU-145 prostate): 26.7 µM and > 10 µM and 26.4 µM
- GI50 (UACC-62 melanoma): 0.255 µM and 0.804 µM and 0.811 µM
- TGI (UACC-62 melanoma): 15.3 µM and > 10 µM and 18 µM
- GI50 (A549 NSCLC): 4.33 µM and 6.07 µM and 7.9 µM
- TGI (A549 NSCLC): 20.5 µM and > 10 µM and 23.6 µM
- GI50 (EKVX NSCLC): 3.65 µM and > 10 µM and 1.41 µM
- TGI (EKVX NSCLC): 22.8 µM and > 10 µM and 18.5 µM
- GI50 (LOX IMVI melanoma): 4.94 µM and > 6.27 µM and 11.8 µM
- TGI (LOX IMVI melanoma): 16.5 µM and > 10 µM and 24.6 µM
- GI50 (MDA-MB-435): 5.47 µM and > 10 µM and 10.8 µM
- TGI (MDA-MB-435): 21.8 µM and > 10 µM and 23 µM
- GI50 (TK-10 renal): 0.506 µM and 0.477 µM and 0.908 µM
- TGI (TK-10 renal): 21.2 µM and > 10 µM and 18.4 µM
- GI50 (OVCAR-4 ovarian): 5.57 µM and > 10 µM and 14.7 µM
- TGI (OVCAR-4 ovarian): 14 µM and > 10 µM and 30.5 µM
- GI50 (SW-620 colon): 14.2 µM and > 10 µM and 15 µM
- TGI (SW-620 colon): 28.7 µM and > 10 µM and 29.8 µM
- TGI (MALME-3M melanoma): 3 µM and > 10 µM and 24.3 µM
- GI50 (HT29 colon): 1.5 µM and 2.34 µM and 3.02 µM
- TGI (HT29 colon): 9.7 µM and > 10 µM and 24.6 µM
- GI50 (OVCAR-3 ovarian): 0.607 µM and 0.841 µM and 0.814 µM
- TGI (OVCAR-3 ovarian): 18.9 µM and > 10 µM and 18.5 µM
- GI50 (SN12C renal): 6.95 µM and > 10 µM and 10.6 µM
- TGI (SN12C renal): 21.7 µM and > 10 µM and 22.7 µM
- GI50 (BT-549 breast): 0.462 µM and 0.621 µM and 1.57 µM
- TGI (BT-549 breast): 13.6 µM and > 10 µM and 16 µM
- GI50 (ACHN renal): 3.05 µM and > 10 µM and 10.5 µM
- TGI (ACHN renal): 14.9 µM and > 10 µM and 22.4 µM
